Data from patent US10640463B2, “Chlorhexidine crystal forms and uses thereof in medicine” (Queen Mary University of London, priority 2016, dated 2020).

What was measured:
[1] = Chlorhexidine release from HEMA-UDMA resin discs, with or without ultrasound; type: physicochemical; conditions: no ultrasound, within 65 hours
Method: HEMA-UDMA resin was prepared by mixing 64% urethane dimethacrylate (UDMA) (Esschem UK, Lot: 591-22) and 36% hydroxyethyl methacrylate (HEMA) (Aldrich, 128635, Lot: STBC7495V), 0.08% of N,N-dimethyl-P-toluidine (Acros Organics, Lot: A0207283001) and 0.05% dimethylamino ethyl methacrylate (Aldrich, 234907, Lot: BCBF8391V) were added. The mixture was then stirred for 15 min (800 rpm, VWR Stirrer, USA). Finally, camphorquinone (Aldrich, 12, 489-3, Lot: 2338141) was added at the proportion of 0.1%. The mixture was stirred for another 15 min (VWR Stirrer, USA), and then the viscous liquid resin was prepared. Freeze dried chlorhexidine chloride compounds produced in Example 2 (precipitated with 0.33 M CaCl2) were weighed and incorporated within the resin at a loading level of 5% by weight. To explore the effect of different morphology on the release kinetics, chlorhexidine compounds with spherical, needle and flake morphology (from Example 1, FIG. 1, panels (b) and (c)) were incorporated into the resin. Incorporation of the chlorhexidine compounds within the resin was carried out by rotating the mixture contained in a 1 ml tube for 15 s in a Rotomix (120V/60 Hz, 2850 rotations/min) (ESPE RotoMix, USA). Chlorhexidine diacetate was also incorporated in the prepared resin in the same way, with loading rates of 5%, 10% and 15% (weight %). The filled resin was then placed into a Teflon mould (10 mm in diameter ×2 mm thick) and cured through a Mylar film with a curing light (Bluedent LED pen, Bulgaria) (430-490 nm, 600 mW/sq·cm) for 30 s. Then the discs were next weighed on a microbalance (Salter Ander-180A weighing scale, UK), and chlorhexidine content in each disc was calculated.
For the release study, all sample resin discs (HEMA-UDMA) containing chlorhexidine chloride compounds or chlorhexidine diacetate powder prepared in Example 5 were kept in cuvettes containing 3 ml deionized water, and kept at room temperature. And at each time point, solutions were collected for UV absorption tests (Lambda 35, Perkin Elmer, USA) and replaced with fresh deionized water.
For the chlorhexidine chloride compound doped discs (Example 5) chlorhexidine content was fixed at 5%, and ultrasound was exerted. Four groups (five discs in each group) were repetitively treated with ultrasound for 0 s, 10 s, 20 s, 30 s, accordingly, by contacting the ultrasound probe (Piezon Master 400, Swiss, 60 Hz, 45VA) on the disc surface at time points of 1 h, 3 h, 5 h, 15 h, 25 h, 40 h, 65 h, 95 h, 140 h, 205 h. After that, no ultrasound was carried out for all the groups, but release was carried on until the 650 hour time point. The UDMA-HEMA discs containing needle and flake chlorhexidine compounds and chlorhexidine diacetate (FIG. 1, panels (b) and (c), and FIG. 3, panel (g)) were also tested (UV absorption tests) at the same time points (same sample numbers) but without ultrasound treatment. For the chlorhexidine diacetate powder doped discs chlorhexidine content of 5%, 10% and 15% were also analysed, and no ultrasound treatment was carried out.

[2] = Thermo-gravimetric analysis (TGA); type: physicochemical; conditions: TGA at 10° C./min in nitrogen, 50-800° C.
Method: The chlorhexidine chloride spheres (0.33M CaCl2 group) were analysed by Thermo-gravimetric analysis (TGA Q50, USA). Chlorhexidine diacetate crystals and CaCl2 powder (Sigma-Aldrich, C8106, Lot: SLBF7416V) were tested as comparisons. TGA was carried out at 10° C./min in a nitrogen atmosphere, over a temperature range of 50-800° C. The chlorhexidine proportion was further confirmed by the TGA result. […] The decomposition temperature of the chlorhexidine chloride spheres (210° C.) was higher than the chlorhexidine diacetate crystals (120° C.).

L929 cells = conditions: mouse
Method: 0.5% chlorhexidine spheres stock solution was used to prepare fresh successive dilutions in sterile deionised water to obtain the final concentrations ranging from 0.0005 to 0.25%. For controls (untreated cultures), sterile deionised water was used. 25 μl of each treatment were added into respective wells to achieve final concentrations ranging from 0.00005-0.025%.
L929 cells, a mouse fibroblast-like cell line (ECACC 85011425) were cultured in Dulbecco's Modified Eagle's Medium (DMEM; Lonza, UK) supplemented with 10% fetal bovine serum (FBS) with 100 IU/mL penicillin, 100 μg/mL streptomycin and 2 mmol/L glutamine (all from Invitrogen, UK) in an humidified incubator with 10% CO2 and 95% air at 37° C.
Cell metabolic activity was evaluated by measuring the mitochondrial activity using a method commonly known as a methyl-tetrazolium (MTT) assay. MTT assay was carried out according to the protocols outlined in ISO 1 0993-5:2009 (Biological evaluation of medical devices—Part 5: Tests for in vitro cytotoxicity).
Trypsinisation was performed by routine methods and cell suspension was counted using a haemocytometer and seeded in 96-well microtiter plates at a concentration of 10,000 cells per well. The cells were then left overnight in the incubator to adhere to the wells. Following overnight incubation, medium was removed and cells were washed twice with PBS. The cells were then treated with different concentrations of chlorhexidine spheres (0.00005-0.025%) for 24 and 48 hours. Following treatment, culture medium containing chlorhexidine spheres was removed and 50 μL of 5 mg/mL tetrazolium salt MTT (Sigma-Aldrich, Gillingham, UK) was added to each well and incubated in 37 C for 4 h. Formazan crystals generated by mitochondrial enzyme activity were dissolved by 100 μl of isopropanol and the intensity of purple coloured reaction product quantified by measuring the absorbance spectra at 570 nm. A cell viability level below 70% of control (no treatment) was regarded as the toxic concentration according to the ISO protocol.

| SMILES | chlorhexidine released by weight ([1]; 5% loading, deionized water, room temperature) | chlorhexidine released by weight ([1]; 10% loading) | chlorhexidine released by weight ([1]; 15% loading) | decomposition temperature [2] | cellular viability (L929 cells) |
| --- | --- | --- | --- | --- | --- |
| CC(=O)O.CC(=O)O.NC(=N\CCCCCC/N=C(N)/N=C(\N)Nc1ccc(Cl)cc1)/N=C(\N)Nc1ccc(Cl)cc1 [chlorhexidine diacetate, Chlorhexidine diacetate, reference compound] | 6.7% | 11.0% | 15.1% | 120 °C |  |
| [H]/N=C(\N/C(=N/[H])NCCCCCCNC(=N)NC(=N)Nc1ccc(Cl)cc1)Nc1ccc(Cl)cc1 [chlorhexidine, N,N″″1,6-Hexanediylbis[N′-(4-chlorophenyl)(imidodicarbonimidic diamide)]] |  |  |  |  | below 10% |
